According to ChEMBL document CHEMBL1201862, “PubChem BioAssay data set” (2004):
The source made the active and inactive calls.

Columns and labels:
[1] = biological target: T1, Tyrosine-protein phosphatase non-receptor type 7 (Homo sapiens, UniProt P35236); assay type: functional
T1 sequence (P35236 whole entry): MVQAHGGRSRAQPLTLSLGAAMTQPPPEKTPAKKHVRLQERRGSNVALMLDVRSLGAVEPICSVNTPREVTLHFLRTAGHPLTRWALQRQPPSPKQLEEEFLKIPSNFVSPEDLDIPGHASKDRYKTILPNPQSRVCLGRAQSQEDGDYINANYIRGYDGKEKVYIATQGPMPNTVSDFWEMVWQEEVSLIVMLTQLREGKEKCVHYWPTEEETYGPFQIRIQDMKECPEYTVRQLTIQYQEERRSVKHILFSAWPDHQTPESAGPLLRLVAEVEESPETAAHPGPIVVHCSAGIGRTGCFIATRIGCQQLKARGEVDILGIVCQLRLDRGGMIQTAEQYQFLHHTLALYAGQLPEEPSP

[2] = biological target: T2, Tyrosine-protein phosphatase non-receptor type 22 (Homo sapiens, UniProt Q9Y2R2); assay type: functional
T2 sequence (Q9Y2R2 whole entry): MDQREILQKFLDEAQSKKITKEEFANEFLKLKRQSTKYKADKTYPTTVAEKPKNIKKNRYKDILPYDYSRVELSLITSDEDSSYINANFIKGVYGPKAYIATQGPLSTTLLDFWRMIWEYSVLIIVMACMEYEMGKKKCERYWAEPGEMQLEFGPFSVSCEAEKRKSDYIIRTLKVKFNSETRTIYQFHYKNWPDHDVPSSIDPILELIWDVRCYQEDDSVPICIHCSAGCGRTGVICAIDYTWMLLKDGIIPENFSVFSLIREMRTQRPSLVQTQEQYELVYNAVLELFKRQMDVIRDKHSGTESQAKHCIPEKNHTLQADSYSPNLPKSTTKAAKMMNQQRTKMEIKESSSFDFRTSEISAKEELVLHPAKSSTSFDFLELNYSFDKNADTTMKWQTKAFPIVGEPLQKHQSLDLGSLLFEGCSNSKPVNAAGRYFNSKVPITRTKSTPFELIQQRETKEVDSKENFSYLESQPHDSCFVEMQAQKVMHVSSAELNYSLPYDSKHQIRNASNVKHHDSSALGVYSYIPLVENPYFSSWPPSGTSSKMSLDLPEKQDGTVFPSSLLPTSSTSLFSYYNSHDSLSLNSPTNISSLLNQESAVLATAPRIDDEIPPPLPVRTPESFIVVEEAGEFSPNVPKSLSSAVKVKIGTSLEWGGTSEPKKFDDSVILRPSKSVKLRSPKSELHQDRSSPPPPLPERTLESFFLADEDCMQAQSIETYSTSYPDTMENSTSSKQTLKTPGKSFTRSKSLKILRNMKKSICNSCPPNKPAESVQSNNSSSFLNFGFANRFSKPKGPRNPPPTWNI

[3] = biological target: T2, Tyrosine-protein phosphatase non-receptor type 22; assay type: functional; remark: listed apart in the source
[4] = biological target: Eukaryotic translation initiation factor 4E (Mus musculus, UniProt P63073); assay: eIF4E–eIF4G protein interaction inhibitors, dose response, biochemical, TR-FRET (AID 855); assay type: functional;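 note: potency for disrupting eIF4E binding to eIF4GI seen as loss of FRET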
Cytochrome P450 3A4 = Cytochrome P450 3A4 (Homo sapiens, UniProt P08684); settings: Potency;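 note: confirmatory qHTS run detecting inhibitors and substrates of CYP3A4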
[5] = cytotoxicity in HEK-293T cells, dose response, cytotoxicity control for BCR NF-kB inhibitor project, luminescence, B-cell screen hits (AID 489021); assay type: functional, cell-based;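 note: HEK-293T cells carrying an NF-kB luciferase reporter; cells exposed to compound for about 14 hours before viability readout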
[6] = biological target: T3, Short transient receptor potential channel 4 (Mus musculus, UniProt Q9QUQ5); assay: mouse TRPC4 channel inhibitors, dose response, cell-based, HEK293 TRPC4/mu-opioid, Fluo-4 calcium (AID 434942); assay type: functional;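 note: potency of inhibitors blocking the TRPC4 calcium response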
T3 sequence (Q9QUQ5 whole entry): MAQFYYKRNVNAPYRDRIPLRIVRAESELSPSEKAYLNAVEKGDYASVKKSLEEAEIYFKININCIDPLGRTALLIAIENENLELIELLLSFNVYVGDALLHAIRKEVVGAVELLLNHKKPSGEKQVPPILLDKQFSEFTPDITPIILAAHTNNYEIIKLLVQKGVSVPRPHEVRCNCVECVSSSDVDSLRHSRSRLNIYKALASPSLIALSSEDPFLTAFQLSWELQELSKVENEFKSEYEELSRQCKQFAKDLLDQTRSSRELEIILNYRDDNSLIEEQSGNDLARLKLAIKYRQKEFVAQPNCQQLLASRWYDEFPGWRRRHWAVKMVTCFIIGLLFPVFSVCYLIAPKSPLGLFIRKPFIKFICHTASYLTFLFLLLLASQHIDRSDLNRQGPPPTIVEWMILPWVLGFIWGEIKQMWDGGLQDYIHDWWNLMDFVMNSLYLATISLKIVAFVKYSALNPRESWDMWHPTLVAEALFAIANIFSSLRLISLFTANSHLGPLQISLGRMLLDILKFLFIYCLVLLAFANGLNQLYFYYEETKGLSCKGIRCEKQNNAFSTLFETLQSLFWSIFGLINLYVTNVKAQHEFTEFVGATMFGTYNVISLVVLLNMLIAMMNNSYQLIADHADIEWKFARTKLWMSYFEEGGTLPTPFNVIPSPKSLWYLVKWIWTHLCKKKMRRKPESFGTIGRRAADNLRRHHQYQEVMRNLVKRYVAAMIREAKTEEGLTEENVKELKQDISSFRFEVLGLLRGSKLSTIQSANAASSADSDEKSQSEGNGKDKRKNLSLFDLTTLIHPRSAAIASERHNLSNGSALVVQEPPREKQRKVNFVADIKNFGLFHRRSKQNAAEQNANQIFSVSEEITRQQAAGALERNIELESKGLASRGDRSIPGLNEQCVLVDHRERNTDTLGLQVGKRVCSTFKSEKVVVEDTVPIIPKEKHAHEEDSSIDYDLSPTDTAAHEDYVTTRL

[7] = biological target: Voltage-dependent T-type calcium channel subunit alpha-1H (Homo sapiens, UniProt O95180); assay type: functional;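 note: channel activity triggered by adding a high calcium stimulation buffer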
[8] = inhibitors of intracellular T. cruzi replication, confirmation, NIH3T3 host cells, beta-gal luminescence (AID 2044); assay type: functional, cell-based;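 note: intracellular parasites grown in NIH/3T3 mouse fibroblasts as host cells; luminescent beta-galactosidase reporter signal from transgenic T. cruzi replicating inside host cells; inhibitors lower the luminescence signal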
[9] = cytotoxicity toward NIH3T3 fibroblasts, dose response, counter-screen, cell-based, ATP luminescence, mouse fibroblasts (AID 2010); assay type: functional;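 note: cells exposed to compound for about 90 hours before reading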
[10] = THP-1 cell cytotoxicity, dose response, cytotoxicity control for non-replicating M. tuberculosis project (AID 489025); assay type: functional
[11] = HepG2 cell cytotoxicity, dose response, cytotoxicity control for non-replicating M. tuberculosis project (AID 489018); assay type: functional; settings: Mycobacterium tuberculosis
[12] = Vero E6 cell cytotoxicity, dose response, cytotoxicity control for non-replicating M. tuberculosis project, secondary assay (AID 492998); assay type: functional, VeroE6; settings: Vero C1008
cells = assay type: functional
[13] = A549 cell cytotoxicity, dose response, cytotoxicity control, plate reader, cherry-pick, antagonist series (AID 743412); assay type: functional, cell-based
[14] = HepG2 cell cytotoxicity, dose response, cytotoxicity control, plate reader, cherry-pick, antagonist series (AID 743416); assay type: functional, cell-based
[15] = LGR2 antagonists, dose response, cell-based, HEK293, CRE-luciferase reporter, cherry pick, set 2 (AID 743343); assay type: functional;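 note: transfected cells were stimulated with diluted bursicon conditioned medium after compound addition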
[16] = MC4R antagonists, dose response, counter-screen for LGR2 antagonist project, cell-based, plate reader, cherry pick (AID 743444); assay type: functional;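 note: transfected HEK 293 cells stimulated with alpha-MSH peptide; potency of inhibitors of the alpha-MSH evoked signal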
[17] = HEK293 cell cytotoxicity, dose response, cytotoxicity control, plate reader, cherry-picked samples (AID 743446); assay type: functional, cell-based
[18] = A cytotoxicity screen of small molecule inhibitors of the PhoP region in Salmonella typhi identified in the primary screen. [Related pubchem assays: 1850, 1864, 1985 ]; assay type: functional
[19] = Luminescence Cell-Based Dose Retest to Confirm Inhibitors of Cancer Stem Cells. [Related pubchem assays (depositor defined):AID2717, AID2721]; assay type: functional; settings: Homo sapiens
[20] = Shn3 3'UTR reporter inhibitors, dose response, cell-based, Clone20 osteoblasts, firefly luciferase, cherry-picked (AID 624132); assay type: functional;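 note: firefly luciferase luminescence from reporter carrying the Shn3 3'UTR in osteoblasts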
[21] = HepG2 cell cytotoxicity, dose response, cytotoxicity control for Shn3 inhibitor project, CellTiter-Glo, cherry-picked (AID 624134); assay type: functional, cell-based
[22] = control 3'UTR Renilla luciferase suppression, dose response, counter-screen for Shn3 inhibitor project, cell-based, Clone20-Shn3RL, cherry-picked (AID 624133); assay type: functional
BJ [23] = assay: cytotoxicity toward BJ-TERT fibroblasts, dose response, cell-based, RAS-independent, luminescence (AID 1933); assay type: functional; settings: Homo sapiens
BJ [24] = assay: cells; assay type: functional, cell-based; settings: Homo sapiens
BJ [25] = assay: cytotoxicity toward BJ-TERT-LT-ST fibroblasts, dose response, cell-based, RAS-independent, luminescence (AID 1935); assay type: functional; settings: Homo sapiens;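 note: BJ fibroblasts immortalized with TERT plus LT and ST oncogenes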
[26] = cytotoxicity toward DRD oncogenic fibroblasts, dose response, cell-based, non-viral oncogenic, luminescence (AID 1934); assay type: functional; settings: Homo sapiens
[27] = cytotoxicity in HEK-293T cells, dose response, cytotoxicity control for TCR NF-kB inhibitor project, luminescence, T-cell screen hits (AID 489026); assay type: functional, cell-based;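 note: cells exposed to compound about 14 hours before the viability readout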
INS1 = assay: beta cell apoptosis inhibitors, cytokine rescue, dose response, luminescence, retest (AID 449756); assay type: functional, cell-based; settings: Rattus norvegicus;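 note: cell death triggered by IL-1 beta plus TNF-alpha plus IFN-gamma mixture; protective hits raise ATP signal compared with cytokine alone wells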
Tumor necrosis factor = Tumor necrosis factor (Homo sapiens, UniProt P01375); assay: TNFa-triggered NF-kB activation inhibitors, SAR follow-up, cell-based, revised (AID 2337); assay type: functional
HEK293 = assay: cells; settings: Homo sapiens;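 note: cells exposed to compound for 14 hours overnight before viability readout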

Eukaryotic translation initiation factor 4E, sequence (P63073 whole entry): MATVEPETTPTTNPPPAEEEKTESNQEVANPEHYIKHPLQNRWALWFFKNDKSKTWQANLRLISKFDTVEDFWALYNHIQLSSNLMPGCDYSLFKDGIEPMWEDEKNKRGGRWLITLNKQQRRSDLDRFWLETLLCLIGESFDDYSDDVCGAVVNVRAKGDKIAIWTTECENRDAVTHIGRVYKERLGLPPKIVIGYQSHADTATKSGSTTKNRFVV
Cytochrome P450 3A4, sequence (P08684 whole entry): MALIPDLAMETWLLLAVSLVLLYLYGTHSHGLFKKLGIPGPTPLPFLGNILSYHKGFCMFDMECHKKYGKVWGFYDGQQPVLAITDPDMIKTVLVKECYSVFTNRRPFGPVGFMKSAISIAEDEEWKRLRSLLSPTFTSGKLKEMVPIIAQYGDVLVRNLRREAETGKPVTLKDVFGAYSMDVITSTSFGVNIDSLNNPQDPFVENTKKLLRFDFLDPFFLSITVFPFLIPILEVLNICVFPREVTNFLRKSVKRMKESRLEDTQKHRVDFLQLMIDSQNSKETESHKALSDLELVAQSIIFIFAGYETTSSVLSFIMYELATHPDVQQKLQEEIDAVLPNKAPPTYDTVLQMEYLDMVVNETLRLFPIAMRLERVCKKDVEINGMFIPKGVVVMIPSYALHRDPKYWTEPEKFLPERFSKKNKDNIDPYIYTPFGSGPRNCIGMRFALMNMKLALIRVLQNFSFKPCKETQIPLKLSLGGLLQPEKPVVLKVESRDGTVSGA
Voltage-dependent T-type calcium channel subunit alpha-1H, sequence (O95180 whole entry): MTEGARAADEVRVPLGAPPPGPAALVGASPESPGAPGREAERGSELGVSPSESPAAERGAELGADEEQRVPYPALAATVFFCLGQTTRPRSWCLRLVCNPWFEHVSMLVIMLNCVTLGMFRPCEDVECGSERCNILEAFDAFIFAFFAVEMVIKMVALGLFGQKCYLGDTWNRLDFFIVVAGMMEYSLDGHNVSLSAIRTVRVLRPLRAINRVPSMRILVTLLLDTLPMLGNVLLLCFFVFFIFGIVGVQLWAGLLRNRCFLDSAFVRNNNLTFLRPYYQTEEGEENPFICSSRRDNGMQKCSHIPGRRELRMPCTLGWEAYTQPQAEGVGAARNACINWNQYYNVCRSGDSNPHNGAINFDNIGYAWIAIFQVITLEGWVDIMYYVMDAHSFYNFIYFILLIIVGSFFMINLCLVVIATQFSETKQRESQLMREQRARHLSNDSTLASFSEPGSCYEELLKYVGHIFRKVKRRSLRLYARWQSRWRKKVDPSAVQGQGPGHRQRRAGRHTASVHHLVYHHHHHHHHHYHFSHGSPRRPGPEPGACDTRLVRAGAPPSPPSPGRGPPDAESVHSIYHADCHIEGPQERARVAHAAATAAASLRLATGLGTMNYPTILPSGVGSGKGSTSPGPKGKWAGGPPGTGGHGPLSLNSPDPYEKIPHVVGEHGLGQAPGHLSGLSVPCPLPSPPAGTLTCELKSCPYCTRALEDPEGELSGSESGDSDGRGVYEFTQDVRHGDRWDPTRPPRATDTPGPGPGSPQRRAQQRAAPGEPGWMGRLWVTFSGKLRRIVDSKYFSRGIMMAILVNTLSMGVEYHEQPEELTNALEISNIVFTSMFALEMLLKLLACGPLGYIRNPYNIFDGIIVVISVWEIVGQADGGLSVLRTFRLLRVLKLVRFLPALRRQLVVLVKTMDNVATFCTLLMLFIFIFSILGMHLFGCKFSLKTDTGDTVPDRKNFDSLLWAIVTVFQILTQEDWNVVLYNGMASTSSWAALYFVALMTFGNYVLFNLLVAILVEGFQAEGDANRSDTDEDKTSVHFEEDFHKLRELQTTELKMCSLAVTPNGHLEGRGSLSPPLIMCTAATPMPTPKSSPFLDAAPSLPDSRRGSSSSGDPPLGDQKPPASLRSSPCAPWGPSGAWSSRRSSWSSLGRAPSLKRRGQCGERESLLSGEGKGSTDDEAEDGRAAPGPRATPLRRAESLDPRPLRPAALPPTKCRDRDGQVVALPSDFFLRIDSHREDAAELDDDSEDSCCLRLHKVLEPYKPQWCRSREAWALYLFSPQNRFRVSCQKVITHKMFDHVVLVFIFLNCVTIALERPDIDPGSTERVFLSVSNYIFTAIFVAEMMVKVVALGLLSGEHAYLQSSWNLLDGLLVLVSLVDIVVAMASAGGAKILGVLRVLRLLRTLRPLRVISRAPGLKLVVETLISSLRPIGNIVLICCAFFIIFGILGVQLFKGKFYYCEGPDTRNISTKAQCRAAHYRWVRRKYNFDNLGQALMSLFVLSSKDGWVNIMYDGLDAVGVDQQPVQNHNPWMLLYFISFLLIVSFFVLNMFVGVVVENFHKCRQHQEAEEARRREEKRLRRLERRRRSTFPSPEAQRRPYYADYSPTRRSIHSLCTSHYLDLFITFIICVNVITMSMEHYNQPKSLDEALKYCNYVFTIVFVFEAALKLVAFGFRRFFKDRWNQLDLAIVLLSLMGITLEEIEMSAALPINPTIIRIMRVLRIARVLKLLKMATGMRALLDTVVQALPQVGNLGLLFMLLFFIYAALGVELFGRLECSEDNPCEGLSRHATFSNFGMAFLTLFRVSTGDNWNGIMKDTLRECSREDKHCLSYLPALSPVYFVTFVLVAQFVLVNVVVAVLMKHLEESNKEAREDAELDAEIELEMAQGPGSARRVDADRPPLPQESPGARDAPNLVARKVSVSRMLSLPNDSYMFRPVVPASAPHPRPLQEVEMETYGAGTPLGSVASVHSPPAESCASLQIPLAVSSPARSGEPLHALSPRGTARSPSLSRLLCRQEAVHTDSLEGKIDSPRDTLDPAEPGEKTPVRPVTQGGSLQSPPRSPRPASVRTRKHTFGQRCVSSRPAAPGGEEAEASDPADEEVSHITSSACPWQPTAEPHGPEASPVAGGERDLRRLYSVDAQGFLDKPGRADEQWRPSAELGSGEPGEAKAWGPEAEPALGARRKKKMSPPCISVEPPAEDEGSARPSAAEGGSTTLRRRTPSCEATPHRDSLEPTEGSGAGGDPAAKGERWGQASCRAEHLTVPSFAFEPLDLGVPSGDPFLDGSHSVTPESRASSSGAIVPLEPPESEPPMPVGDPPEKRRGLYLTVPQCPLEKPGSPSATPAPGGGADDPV
Tumor necrosis factor, sequence (P01375 whole entry): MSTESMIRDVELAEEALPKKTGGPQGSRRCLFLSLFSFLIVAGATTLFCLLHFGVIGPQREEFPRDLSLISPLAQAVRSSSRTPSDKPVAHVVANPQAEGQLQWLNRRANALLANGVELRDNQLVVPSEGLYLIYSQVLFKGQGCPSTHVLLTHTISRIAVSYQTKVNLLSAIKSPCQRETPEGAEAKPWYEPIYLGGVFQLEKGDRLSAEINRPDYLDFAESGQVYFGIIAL

Cc1ccc(NC(=O)COC(=O)c2cc(-c3cccs3)nn2-c2ccccc2)cc1[N+](=O)[O-]
IC50 [1]: > 79.4 µM (inactive)
IC50 [2]: > 79.4 µM (inactive)
IC50 [3]: > 79.4 µM (inactive)

CC1=CC2=NC(=O)/C(=C\c3cc(C)n(-c4ccccc4)c3C)C(=N)N2O1
IC50 [4]: > 64 µM (inactive)

Oc1ccc(C2Oc3cc(O)cc(O)c3CC2O)cc1 (stereo not drawn)
AC50 (Cytochrome P450 3A4): 12.6 µM (inconclusive)

C=CCn1c(S)nnc1-c1ccc2[nH]c(C)c(C)c2c1
IC50 [4]: > 64 µM (inactive)

Cc1ccc(C(=O)CSc2nnc(COc3cccc(C)c3)o2)cc1
IC50 [5]: > 80 µM (inactive)

Cc1ccc(C)c(CN2C(=O)COc3ccc(C(=O)c4ccccc4C(=O)O)cc32)c1
IC50 [1]: > 79.4 µM (inactive)
IC50 [2]: > 79.4 µM (inactive)
IC50 [3]: > 79.4 µM (inactive)

CN(C)S(=O)(=O)N1CCN(S(=O)(=O)c2ccc3ccccc3c2)CC1
IC50 [1]: > 79.4 µM (inactive)
IC50 [2]: > 79.4 µM (inactive)
IC50 [3]: > 79.4 µM (inactive)

CC(=O)N1CCN(c2ccccc2NC(=O)c2ccc3ccccc3c2)CC1
EC50 [6]: 1.5 µM (active)

CCC(CC)c1nnc(NC(=O)C2COc3ccccc3O2)s1 (stereo not drawn)
EC50 [7]: 3.85 µM (active)

Cc1ccc(S(=O)(=O)Nc2c(C)n(C)n(-c3ccccc3)c2=O)cc1C(=O)NCc1ccccn1
IC50 [4]: > 64 µM (inactive)

Cc1cc([N+](=O)[O-])ccc1NC(=O)Nc1ccc(F)cc1F
EC50 [8]: 4.36 µM (active)
EC50 [9]: > 60 µM (not active)
CC50 [10]: 20.3 µM (active)
CC50 [11]: > 20 µM (active)
CC50 [12]: > 20 µM (active)
IC50 (cells): 46.7 µM (active)
AC50 [13]: 19.6 µM (active)
AC50 [14]: 18.8 µM (active)
AC50 [15]: 30.9 µM (active)
AC50 [16]: 30.1 µM (active)
AC50 [17]: 22.8 µM (active)

CCOC(=O)C1(CCOc2ccccc2)CCN(Cc2cccn2-c2ncccn2)CC1
EC50 [6]: 1.88 µM (active)

c1ccc(-c2nc(NCc3ccco3)c3ccccc3n2)cc1
EC50 [6]: 3.76 µM (active)

Cn1c(N)c(C(=O)COC(=O)c2cc(-c3ccccc3)nc3ccccc23)c(=O)n(Cc2ccccc2)c1=O
AC50 (Cytochrome P450 3A4): 12.6 µM (inconclusive)

COc1ccc(S(=O)(=O)N[C@H](C(=O)N2CC[C@@]3(O)CCCC[C@H]3C2)c2ccccc2)cc1
EC50 [18]: > 50 µM (active)

COc1ccc2ccccc2c1C1CC(=O)N2CN(C)CSC2=C1C#N (stereo not drawn)
IC50 [4]: > 64 µM (inactive)

CCOc1ccc2[nH]c3c(N4CCN(c5ccccn5)CC4)ncnc3c2c1
EC50 [6]: 1.19 µM (active)

COc1ccc(/C=C2\Sc3ccc(C(=O)NCCN4CCCCCC4)cc3N(C)C2=O)cc1
CC50 [10]: 17.9 µM (active)
CC50 [11]: 14.3 µM (active)
CC50 [12]: > 20 µM (active)
IC50 (cells): 19 µM (active)

CC(NCc1ccc(OCc2ccc(Cl)cc2)cc1)C(O)c1ccccc1 (stereo not drawn)
CC50 [10]: 9.8 µM (active)
AC50 [19]: 3.57 µM (active)
CC50 [11]: 15.5 µM (active)
CC50 [12]: 14.6 µM (active)
IC50 (cells): 13.3 µM (active)
AC50 [20]: 10.9 µM (active)
AC50 [21]: 14.6 µM (active)
AC50 [22]: 21.2 µM (active)

COc1cccc(Cn2nnc(C(=O)Nc3cc(Cl)ccc3OC)c2N)c1
AC50 [19]: 0.498 µM (active)
IC50 [5]: > 80 µM (inactive)

COc1ccccc1N1CCN(C(=O)C2c3ccccc3Oc3ccccc32)CC1
EC50 (BJ [23]): 2.13 µM (active)
EC50 (BJ [24]): 40.2 µM (inconclusive)
EC50 (BJ [25]): 1.65 µM (inconclusive)
EC50 [26]: 2.06 µM (inconclusive)
EC50 [7]: 3.44 µM (active)
IC50 [27]: > 80 µM (inactive)

CCn1cc(Br)c(C(=O)NC(=S)Nc2ccc(C(=O)OC)cc2)n1
IC50 [1]: > 79.4 µM (inactive)
IC50 [2]: > 79.4 µM (inactive)
IC50 [3]: > 79.4 µM (inactive)

CCN(Cc1ccccc1)C(c1ccc(C(F)(F)F)cc1)c1nnnn1C(C)(C)C (stereo not drawn)
EC50 [7]: 11.8 µM (active)
AC50 (INS1): 6.45 µM (active)

CC(=O)N1c2ccc(S(=O)(=O)N3CCN(c4ccc([N+](=O)[O-])cc4)CC3)cc2CC1C (stereo not drawn)
IC50 (Tumor necrosis factor): 3.27 µM (active)
IC50 (HEK293): 14.3 µM (active)

COC(=O)CC1[C@@]2(C)C[C@@]34OC5(C)OC6(CC[C@@]7(C)C(c8ccoc8)OC(=O)C(C(C)=O)C7[C@]6(O5)C(O)[C@@]3(O)C2O)[C@]14C (stereo partly drawn)
AC50 (Cytochrome P450 3A4): 39.8 µM (inconclusive)

CCCCCCN(C(=O)CCCCCN1C(=O)NC(c2ccc(-c3ccccc3)cc2)C(C(=O)OCc2ccccc2)=C1C)C(C(=O)NCCCC)c1ccccn1 (stereo not drawn)
AC50 (Cytochrome P450 3A4): 1 µM (inconclusive)

O=C(N/N=C/c1ccc(Cl)cc1Cl)c1ccc(-n2cnnn2)cc1
IC50 [5]: > 80 µM (inactive)
